Literature values as cited in patent publication US20090022826A1, “Multi-step method of pain and/or inflammation treatment” (priority 2007, published 2009).

solubility in alcohol (alcohol): soluble
solubility in mineral oil (mineral oil): insoluble
solubility in vegetable oil (vegetable oil): partially soluble
solubility in water (water): soluble
SMILES: CCOCCOCCO [Ethoxydiglycol, diethylene glycol monoethyl ether]
